Experimental findings from patent publication US9686985B2, “Fungicide N-cycloalkyl-N-bicyclicmethylene-carboxamide derivatives” (BAYER INTELLECTUAL PROPERTY GMBH, priority 2012, dated 2017) are described below.

Data set [1] can be described thus: log P by HPLC on reversed-phase column (EEC Directive 79/831 Annex V.A8). The data set is classed as physicochemical. The conditions noted are these: Table 1; HPLC C18, 40° C., 0.1% aqueous formic acid and acetonitrile gradient. The procedure:
In table 1, the log P values were determined in accordance with EEC Directive 79/831 Annex V.A8 by HPLC (High Performance Liquid Chromatography) on a reversed-phase column (C 18), using the method described below: Temperature: 40° C.; Mobile phases: 0.1% aqueous formic acid and acetonitrile; linear gradient from 10% acetonitrile to 90% acetonitrile. Calibration was carried out using unbranched alkan-2-ones (comprising 3 to 16 carbon atoms) with known log P values (determination of the log P values by the retention times using linear interpolation between two successive alkanones). lambda-max-values were determined using UV-spectra from 200 nm to 400 nm and the peak values of the chromatographic signals.

A further data set has as its system Puccinia recondita. Briefly: Example R: in vivo preventive test on Puccinia recondita (brown rust on wheat). The conditions noted are these: table R; 500 ppm; wheat plants; grading 12 days after contamination. The procedure:
Example R: In Vivo Preventive Test on Puccinia recondita (Brown Rust on Wheat) […] Wheat plants (“Scipion” variety), sown in starter cups on a 50/50 peat soil pozzolana substrate and grown at 22° C., are treated at the 1 leaf stage (10 cm height) by spraying with the active ingredient prepared as described above. Plants, used as controls, are treated with the mixture of acetone/tween/DMSO/water not containing the active material. After 24 hours, the plants are contaminated by spraying the leaves with an aqueous suspension of Puccinia recondita spores (100 000 spores per mL). The spores are collected from an infected plant and are suspended in water containing 2.5 mL/L of Tween 80 at 10%. The contaminated wheat plants are incubated for 24 hours at 20° C. and at 100% relative humidity, and then for 10 days at 20° C. and at 70-80% relative humidity. Grading (% of efficacy) is carried out 12 days after the contamination, in comparison with the control plants.

The next data set has as its system Uromyces appendiculatus. Briefly: Example G: in vivo preventive test on Uromyces appendiculatus (bean rust). The conditions noted are these: bean plants. The procedure: Example G: In Vivo Preventive Test on Uromyces appendiculatus (Bean Rust) […] Bean plants (“Saxa” variety), sown in starter cups on a 50/50 peat soil pozzolana substrate and grown at 24° C., are treated at the 2 leaf stage (9 cm height) by spraying with the active ingredient prepared as described above. Plants, used as controls, are treated with the mixture of acetone/tween/DMSO/water not containing the active material. After 24 hours, the plants are contaminated by spraying the leaves with an aqueous suspension of Uromyces appendiculatus spores (150 000 spores per mL). The spores are collected from infected plants and are suspended in water containing 2.5 mL/L of Tween 80 at 10%. The contaminated bean plants are incubated for 24 hours at 20° C. and at 100% relative humidity, and then for 10 days at 20° C. and at 70-80% relative humidity. Grading (% of efficacy) is carried out 11 days after the contamination, in comparison with the control plants.

Another data set relates to Pyrenophora teres. Put plainly: Example N: in vivo preventive test on Pyrenophora teres (barley). As to conditions: table N; 500 ppm; barley plants; grading 14 days after contamination. The procedure:
Example N: In Vivo Preventive Test on Pyrenophora teres (Barley) […] Barley plants (“Plaisant” variety), sown in starter cups on a 50/50 peat soil pozzolana substrate and grown at 22° C., are treated at the 1 leaf stage (10 cm height) by spraying with the active ingredient prepared as described above. Plants, used as controls, are treated with the mixture of acetone/tween/DMSO/water not containing the active material. After 24 hours, the plants are contaminated by spraying the leaves with an aqueous suspension of Pyrenophora teres spores (12 000 spores per mL). The spores are collected from a 12-day-old culture. The contaminated barley plants are incubated for 48 hours at 20° C. and at 100% relative humidity, and then for 12 days at 20° C. at 70-80% relative humidity. Grading (% of efficacy) is carried out 14 days after the contamination, in comparison with the control plants.

A further data set concerns Sphaerotheca fuliginea. Briefly: Example B: in vivo preventive test on Sphaerotheca fuliginea (powdery mildew on cucurbits). As to conditions: table B; 500 ppm; gherkin plants; grading 12 days after contamination. The procedure:
Example B: In Vivo Preventive Test on Sphaerotheca fuliginea (Powdery Mildew on Cucurbits) […] Gherkin plants (“Vert petit de Paris” variety), sown in starter cups on a 50/50 peat soil-pozzolana substrate and grown at 24° C., are treated at the Z11 cotyledon stage by spraying with the active ingredient prepared as described above. Plants, used as controls, are treated with the mixture of acetone/tween/DMSO/water not containing the active material. After 24 hours, the plants are contaminated by spraying the cotyledons with an aqueous suspension of Sphaerotheca fuliginea spores (100 000 spores per mL). The spores are collected from infected plants. The contaminated gherkin plants are incubated at about 20° C. and at 70-80% relative humidity. Grading (% of efficacy) is carried out 12 days after the contamination, in comparison with the control plants.

Another data set relates to Alternaria brassicae. Put plainly: Example D: in vivo preventive test on Alternaria brassicae (leaf spot on radish). The conditions noted are these: table D; 500 ppm; radish plants; grading 6 days after contamination. The procedure: Example D: In Vivo Preventive Test on Alternaria brassicae (Leaf Spot on Radish) […] Radish plants (“Pernod Clair” variety), sown in starter cups on a 50/50 peat soil pozzolana substrate and grown at 17° C., are treated at the cotyledon stage by spraying with the active ingredient prepared as described above. Plants, used as controls, are treated with the mixture of acetone/tween/DMSO/water not containing the active material. After 24 hours, the plants are contaminated by spraying the cotyledons with an aqueous suspension of Alternaria brassicae spores (50 000 spores per mL). The spores are collected from a 15-day-old culture. The contaminated radish plants are incubated at 20° C. and at 100% relative humidity. Grading (% of efficacy) is carried out 6 days after the contamination, in comparison with the control plants.

The next data set relates to Septoria tritici. Briefly: Example L: in vivo preventive test on Septoria tritici (wheat). As to conditions: table L; 500 ppm; wheat plants; grading 24 days after contamination. The procedure: Example L: In Vivo Preventive Test on Septoria tritici (Wheat) […] Wheat plants (“Scipion” variety), sown in starter cups on a 50/50 peat soil pozzolana substrate and grown at 22° C., are treated at the 1 leaf stage (10 cm height) by spraying with the active ingredient prepared as described above. Plants, used as controls, are treated with the mixture of acetone/tween/DMSO/water not containing the active material. After 24 hours, the plants are contaminated by spraying the leaves with an aqueous suspension of cryopreserved Septoria tritici spores (500 000 spores per mL). The contaminated wheat plants are incubated for 72 hours at 18° C. and at 100% relative humidity, and then for 21 days at 90% relative humidity. Grading (% of efficacy) is carried out 24 days after the contamination, in comparison with the control plants.

The mark [2] stands for this setting: table G1, 500 ppm, grading 11 days after contamination.

As for `Cn1nc(C(F)F)c(C(=O)N(CC2CCc3ccccc32)C2CC2)c1Cl` (centres unmarked) [I.1], in data set [1], the logP (usually a log measure of how a compound divides between an organic and an aqueous phase) came to 3.51. For the same compound, the Efficacy in the data set with Puccinia recondita was 88%; with Uromyces appendiculatus (setting [2]), 72%; in the data set with Pyrenophora teres, 86%; in the data set on Sphaerotheca fuliginea it was 83%.
As to `Cn1nc(C(F)F)c(C(=O)N(CC2CCc3ccccc32)C2CC2)c1F` (centres unmarked) [I.2], the logP in data set [1] is 3.35. Besides, the Efficacy in the data set with Puccinia recondita was found to be 100%; in the data set on Uromyces appendiculatus (setting [2]) it was 100%; in the data set on Uromyces appendiculatus (table G2, dose 100 ppm), 88%; with Uromyces appendiculatus (table G2, dose 500 ppm) it was 100%; in the data set on Alternaria brassicae it was 100%; in the data set on Pyrenophora teres, 100%. Further, the Efficacy in the data set with Septoria tritici and with Sphaerotheca fuliginea was 100% in each case.
Regarding `Cc1cccc2c1CCC2CN(C(=O)c1c(C(F)F)nn(C)c1Cl)C1CC1` (centres unmarked) [I.4], in data set [1], the log partition coefficient (logP) came to 3.87. Moreover, the Efficacy with Alternaria brassicae worked out at 75%; with Pyrenophora teres, 71%; in the data set with Septoria tritici it was 79%.
`Cc1ccc2c(c1)CCC2CN(C(=O)c1c(C(F)F)nn(C)c1Cl)C1CC1` (centres unmarked) [I.5] had a logP in data set [1] of 3.94. The Efficacy in the data set on Puccinia recondita is 75%; in the data set with Pyrenophora teres, 86%; in the data set with Sphaerotheca fuliginea it was 100%.
In data set [1], `Cc1ccc2c(c1)CCC2CN(C(=O)c1c(C(F)F)nn(C)c1F)C1CC1` (centres unmarked) [I.6] returned a log partition coefficient (logP) of 3.76. Besides, the Efficacy with Puccinia recondita is 100%; with Uromyces appendiculatus (setting [2]), 100%; in the data set on Uromyces appendiculatus (table G2, dose 100 ppm) it was 69%; with Uromyces appendiculatus (table G2, dose 500 ppm), 100%; in the data set on Alternaria brassicae it was 97%; in the data set on Pyrenophora teres it was 100%. The figures for the Efficacy with Septoria tritici and in the data set with Sphaerotheca fuliginea were 97% and 100%, respectively.
For `Cn1nc(C(F)F)c(C(=O)N(CC2CCc3c(F)cccc32)C2CC2)c1F` (centres unmarked) [I.7], in data set [1], the logP is listed as 3.39. For the same compound, the Efficacy in the data set with Puccinia recondita is listed as 94%; with Uromyces appendiculatus (setting [2]), 100%; with Uromyces appendiculatus (table G2, dose 100 ppm), 98%; in the data set on Uromyces appendiculatus (table G2, dose 500 ppm), 100%; in the data set with Alternaria brassicae, 97%; in the data set with Pyrenophora teres, 97%. The Efficacy in the data set with Septoria tritici is on record as 93%; with Sphaerotheca fuliginea it was 100%.
Turning to `Cn1nc(C(F)F)c(C(=O)N(CC2CC(C)(C)c3ccccc32)C2CC2)c1F` (centres unmarked) [I.9], the logP in data set [1] is given as 3.94. In addition, the Efficacy in the data set with Puccinia recondita turned out to be 100%; in the data set with Uromyces appendiculatus (table G2, dose 100 ppm) it was 100%; with Alternaria brassicae, 100%; with Pyrenophora teres, 97%; in the data set with Septoria tritici, 97%; in the data set with Sphaerotheca fuliginea it was 100%.
The compound `Cn1nc(C(F)F)c(C(=O)N(CC2CC(C)(C)c3ccccc32)C2CC2)c1Cl` (centres unmarked) [I.10] had a logP in data set [1] of 4.08. For the same compound, the Efficacy with Puccinia recondita turned out to be 88%; in the data set on Uromyces appendiculatus (setting [2]), 99%; in the data set with Alternaria brassicae, 92%; in the data set with Pyrenophora teres, 86%; with Septoria tritici, 79%; in the data set on Sphaerotheca fuliginea, 100%.
On to `Cn1nc(C(F)F)c(C(=O)N(CC2CCc3cc(Cl)ccc32)C2CC2)c1Cl` (centres unmarked) [I.13], for which the logP in data set [1] is 3.99. Further, the Efficacy is 75% in the data set on Alternaria brassicae, 86% with Pyrenophora teres and 78% in the data set on Sphaerotheca fuliginea.
`Cn1nc(C(F)F)c(C(=O)N(CC2CCc3c(Cl)cc(Cl)cc32)C2CC2)c1Cl` (centres unmarked) [I.19] showed a logP in data set [1] of 4.59. In addition, the Efficacy is 88% in the data set with Puccinia recondita, 100% in the data set with Uromyces appendiculatus (setting [2]), 92% in the data set on Alternaria brassicae and 71% in the data set with Pyrenophora teres.
Regarding `CC1CCC(CN(C(=O)c2c(C(F)F)nn(C)c2Cl)C2CC2)c2ccccc21` (centres unmarked) [I.25], the logP in data set [1] came to 4.11. Further, the Efficacy in the data set with Alternaria brassicae and with Pyrenophora teres was 94% in each case.
As for `COc1cccc2c1CCCC2CN(C(=S)c1c(C(F)F)nn(C)c1F)C1CC1` (centres unmarked) [I.27], the logP in data set [1] is reported as 4.46. Besides, the Efficacy in the data set with Alternaria brassicae was found to be 93%; with Pyrenophora teres it was 71%; in the data set on Septoria tritici, 97%; with Sphaerotheca fuliginea, 80%.
